Measured values as given in ChEMBL document CHEMBL6096686, “Lanosterol 14α-Demethylase (CYP51)/Heat Shock Protein 90 (Hsp90) Dual Inhibitors for the Treatment of Invasive Candidiasis” (J Med Chem, 2025).
Converted amounts (≈) assume the structure as drawn. The source made the active and inactive calls. The calls are words filed in the database; no cut-off is given here.

Tests used:
[1] = test system: Nakaseomyces glabratus; assay: Antifungal activity against Candida glabrata 7804 incubated for 48 hrs by CLSI based liquid microdilution technique; format: functional
[2] = test system: Candida albicans; assay: Antifungal activity against Candida albicans SC5314 incubated for 48 hrs by CLSI based liquid microdilution technique; format: functional
[3] = test system: Cryptococcus neoformans; assay: Antifungal activity against Cryptococcus neoformans H99 incubated for 72 hrs by CLSI based liquid microdilution technique; format: functional
[4] = test system: Pichia kudriavzevii; assay: Antifungal activity against Candida krusei 10153 incubated for 48 hrs by CLSI based liquid microdilution technique; format: functional
[5] = test system: Candida albicans; assay: Antifungal activity against Candida albicans SC5314 assessed as decrease in ACE2 mRNA level at 4 ug/ml measured after 24 hrs by real time RT-PCR analysis; format: functional, organism-based; conditions: dose 4.0 µg/ml
[6] = test system: Candida albicans; assay: Antifungal activity against Candida albicans SC5314 assessed as decrease in RLM1 mRNA level at 4 ug/ml measured after 24 hrs by real time RT-PCR analysis; format: functional, organism-based; conditions: dose 4.0 µg/ml
[7] = target: T1, Lanosterol 14-alpha demethylase (Candida albicans (strain SC5314 / ATCC MYA-2876) (Yeast), UniProt P10613); assay: Inhibition of CYP51 in Candida albicans SC5314 assessed as decrease in ERG26 mRNA level at 4 ug/ml measured after 24 hrs by real time RT-PCR analysis; conditions: at 4 µg/mL
T1 sequence (P10613 whole entry): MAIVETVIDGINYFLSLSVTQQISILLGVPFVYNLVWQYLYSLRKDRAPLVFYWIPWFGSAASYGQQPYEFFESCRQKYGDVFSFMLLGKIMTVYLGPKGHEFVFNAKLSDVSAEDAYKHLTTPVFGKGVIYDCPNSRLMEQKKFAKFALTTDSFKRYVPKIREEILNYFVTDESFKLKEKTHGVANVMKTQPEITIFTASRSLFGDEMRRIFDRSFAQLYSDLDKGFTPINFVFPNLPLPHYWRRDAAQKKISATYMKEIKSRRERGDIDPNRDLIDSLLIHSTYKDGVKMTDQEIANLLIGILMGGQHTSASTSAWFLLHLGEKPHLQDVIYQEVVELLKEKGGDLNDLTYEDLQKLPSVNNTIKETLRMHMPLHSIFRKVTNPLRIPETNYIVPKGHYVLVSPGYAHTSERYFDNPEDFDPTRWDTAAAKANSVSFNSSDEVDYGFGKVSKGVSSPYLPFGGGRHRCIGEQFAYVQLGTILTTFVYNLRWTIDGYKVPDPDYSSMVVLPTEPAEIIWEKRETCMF

[8] = target: T1, Lanosterol 14-alpha demethylase; assay: Inhibition of CYP51 in Candida albicans SC5314 assessed as decrease in ERG6 mRNA level at 4 ug/ml measured after 24 hrs by real time RT-PCR analysis; conditions: at 4 µg/mL
[9] = target: T1, Lanosterol 14-alpha demethylase; assay: Inhibition of CYP51 in Candida albicans SC5314 assessed as decrease in ERG27 mRNA level at 4 ug/ml measured after 24 hrs by real time RT-PCR analysis; conditions: at 4 µg/mL
[10] = test system: Candida albicans; assay: Inhibition of biofilm formation in Candida albicans SC5314 at 4 ug/ml incubated for 24 hrs by XTT reduction method relative to control; format: functional
[11] = test system: Candida albicans; assay: Selectivity index, ratio of MIC80 antifungal activity against Candida albicans SC5314 to MIC80 for antifungal activity against Candida albicans SC5314 harboring HSP90 monoallelic knockout; format: functional
[12] = Cytotoxicity against human L02 cells measured after 72 hrs by CCK8 assay; format: toxicity, cell-based
[13] = test system: Candida albicans; assay: Antifungal activity against Candida albicans SC5314 assessed as decrease in ALS3 mRNA level at 4 ug/ml measured after 24 hrs by real time RT-PCR analysis; format: functional, organism-based; conditions: dose 4.0 µg/ml
[14] = Cytotoxicity against HUVEC cells measured after 72 hrs by CCK8 assay; format: toxicity, cell-based; conditions: human
[15] = test system: Candida albicans; assay: Antifungal activity against Candida albicans SC5314 infected in immunosuppressed ICR mouse assessed as reduction in fungal burden in kidney at 5 mg/kg, ip treated for 5 days consecutively (reference value: 6.71 log10CFU/ml); format: functional; conditions: time 5 day
[16] = test system: Candida albicans; assay: Inhibition of biofilm formation in Candida albicans SC5314 incubated for 24 hrs by XTT reduction method; format: functional, organism-based; conditions: dose <= 32.0 µg/ml
[17] = test system: Candida albicans; assay: Antifungal activity against Candida albicans SC5314 assessed as decrease in EFG1 mRNA level at 4 ug/ml measured after 24 hrs by real time RT-PCR analysis; format: functional, organism-based; conditions: dose 4.0 µg/ml
[18] = test system: Candida albicans; assay: Antifungal activity against Candida albicans SC5314 assessed as decrease in ZAP1 mRNA level at 4 ug/ml measured after 24 hrs by real time RT-PCR analysis; format: functional, organism-based; conditions: dose 4.0 µg/ml
[19] = target: Heat shock protein HSP90 (Homo sapiens, UniProt P07900+P08238); assay: Inhibition of human HSP90 using FITC-Geldanamycin as substrate incubated for 6 hrs by fluorescence polarization assay; format: protein assay
[20] = test system: Candida albicans; assay: Antifungal activity against Candida albicans SC5314 assessed as decrease in HWP1 mRNA level at 4 ug/ml measured after 24 hrs by real time RT-PCR analysis; format: functional, organism-based; conditions: dose 4.0 µg/ml
[21] = test system: Candida albicans; assay: Inhibition of yeast to hypha transition in Candida albicans SC5314 at 4 ug/ml incubated for 2.5 hrs by inverted microscopy; format: functional, organism-based; conditions: dose 4.0 µg/ml
[22] = target: Heat shock protein 90 homolog (Candida albicans (strain SC5314 / ATCC MYA-2876) (Yeast), UniProt P46598); assay: Inhibition of HSP90 extracted from Candida albicans SC5314 lysate using FITC-Geldanamycin as substrate incubated for 6 hrs by fluorescence polarization assay; format: subcellular
Sequence of Heat shock protein 90 homolog (P46598 whole entry): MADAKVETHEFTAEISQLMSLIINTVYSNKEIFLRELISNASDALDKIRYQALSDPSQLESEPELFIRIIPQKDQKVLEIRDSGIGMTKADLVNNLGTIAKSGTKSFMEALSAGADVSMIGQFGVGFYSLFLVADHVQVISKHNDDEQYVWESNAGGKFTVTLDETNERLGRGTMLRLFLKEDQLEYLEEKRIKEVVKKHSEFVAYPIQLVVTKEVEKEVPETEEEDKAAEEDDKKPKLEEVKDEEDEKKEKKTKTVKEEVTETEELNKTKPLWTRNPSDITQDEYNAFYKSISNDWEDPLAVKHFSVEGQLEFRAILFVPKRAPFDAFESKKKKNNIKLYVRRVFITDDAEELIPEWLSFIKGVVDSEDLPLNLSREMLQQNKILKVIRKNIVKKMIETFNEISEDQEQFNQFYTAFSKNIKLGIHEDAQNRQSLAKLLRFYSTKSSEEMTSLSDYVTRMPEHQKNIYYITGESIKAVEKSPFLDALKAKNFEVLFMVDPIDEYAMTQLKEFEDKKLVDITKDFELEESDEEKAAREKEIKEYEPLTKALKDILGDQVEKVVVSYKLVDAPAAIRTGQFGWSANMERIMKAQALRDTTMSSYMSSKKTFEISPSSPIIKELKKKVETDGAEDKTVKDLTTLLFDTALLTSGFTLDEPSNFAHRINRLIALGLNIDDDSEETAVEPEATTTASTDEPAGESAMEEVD

[23] = test system: Candida albicans; assay: Antifungal activity against Candida albicans SC5314 assessed as fungal growth inhibition at 4 ug/ml incubated for 48 hrs; format: functional, organism-based; conditions: dose 4.0 µg/ml
[24] = target: T1, Lanosterol 14-alpha demethylase; assay: Inhibition of CYP51 in Candida albicans SC5314 assessed as accumulation of eburicol at 4 ug/ml measured after 48 hrs by GC-MS analysis; conditions: at 4 µg/mL
[25] = test system: Candida albicans; assay: Antifungal activity against Candida albicans SC5314 assessed as decrease in CPH1 mRNA level at 4 ug/ml measured after 24 hrs by real time RT-PCR analysis; format: functional, organism-based; conditions: dose 4.0 µg/ml
[26] = test system: Candida albicans; assay: Antifungal activity against Candida albicans SC5314 assessed as fungal growth inhibition at 4 ug/ml incubated for 48 hrs by spot-plating method; format: functional, organism-based; conditions: dose 4.0 µg/ml
[27] = test system: Candida albicans; assay: Inhibition of biofilm formation in Candida albicans SC5314 at 0.5 ug/ml incubated for 24 hrs by XTT reduction method relative to control; format: functional
[28] = test system: Candida albicans; assay: Antifungal activity against Candida albicans SC5314 infected in immunosuppressed ICR mouse administered intraperitoneally treated for 5 days consecutively; format: functional, organism-based; conditions: dose 5-20 mg/kg, route ip, time 5.0 day
[29] = test system: Candida albicans; assay: Antifungal activity against Candida albicans SC5314 assessed as decrease in TEC1 mRNA level at 4 ug/ml measured after 24 hrs by real time RT-PCR analysis; format: functional, organism-based; conditions: dose 4.0 µg/ml
[30] = test system: Candida albicans; assay: Antifungal activity against Candida albicans SC5314 infected in immunosuppressed ICR mouse assessed as reduction in fungal burden in kidney at 10 mg/kg, ip treated for 5 days consecutively (reference value: 6.71 log10CFU/ml); format: functional; conditions: time 5 day
[31] = test system: Candida albicans; assay: Antifungal activity against Candida albicans SC5314 assessed as decrease in BCR1 mRNA level at 4 ug/ml measured after 24 hrs by real time RT-PCR analysis; format: functional, organism-based; conditions: dose 4.0 µg/ml
[32] = test system: Candida albicans; assay: Antifungal activity against Candida albicans SC5314 assessed as fungal growth inhibition at 32 ug/ml incubated for 48 hrs by spot-plating method relative to control; format: functional
[33] = test system: Candida albicans; assay: Inhibition of yeast to hypha transition in Candida albicans SC5314 at 8 ug/ml incubated for 2.5 hrs by inverted microscopy relative to control; format: functional
[34] = test system: Candida albicans; assay: Antifungal activity against Candida albicans SC5314 harboring HSP90 monoallelic knockout incubated for 48 hrs by CLSI based liquid microdilution technique; format: functional
[35] = test system: Candida albicans; assay: Antifungal activity against Candida albicans SC5314 assessed as reduction in fungal growth at 8 ug/ml incubated for 48 hrs (reference value: 8.17 log10CFU/ml); format: functional; conditions: dose 8 µg/ml
[36] = target: T1, Lanosterol 14-alpha demethylase; assay: Inhibition of CYP51 in Candida albicans SC5314 assessed as decrease in ERG3 mRNA level at 4 ug/ml measured after 24 hrs by real time RT-PCR analysis; conditions: at 4 µg/mL
[37] = test system: Candida albicans; assay: Inhibition of biofilm formation in Candida albicans SC5314 at 32 ug/ml incubated for 24 hrs by XTT reduction method relative to control; format: functional
[38] = test system: Candida albicans; assay: Antifungal activity against Candida albicans SC5314 infected in immunosuppressed ICR mouse assessed as reduction in fungal burden in kidney at 20 mg/kg, ip treated for 5 days consecutively (reference value: 6.71 log10CFU/ml); format: functional; conditions: time 5 day
[39] = test system: Candida albicans; assay: Antifungal activity against Candida albicans SC5314 assessed as decrease in EAP1 mRNA level at 4 ug/ml measured after 24 hrs by real time RT-PCR analysis; format: functional, organism-based; conditions: dose 4.0 µg/ml
[40] = test system: Candida albicans; assay: Antifungal activity against Candida albicans SC5314 assessed as fungal growth inhibition incubated for 48 hrs by spot-plating method; format: functional, organism-based; conditions: dose 4-32 µg/ml

In the case of CCN(C(=O)c1cc(-c2ccc(C)cc2)c(OCc2ccccc2)cc1OCc1ccccc1)c1ccc(CN2CCN(CC(O)(Cn3cncn3)c3ccc(F)cc3F)CC2)cc1 (stereo not drawn), the MIC80 [1] is reported as 16 µg/mL (≈ 18.5 µM), the MIC80 [2] is reported as > 64 µg/mL and the MIC80 [3] is reported as > 64 µg/mL. For the same molecule, the MIC80 [4] was > 64 µg/mL.
With CCNC(=O)c1noc(-c2cc(-c3ccc(C)cc3)c(O)cc2O)c1-c1ccc(CN2CCN(C(=O)CCCOc3ccc(CN(C)CC(O)(Cn4cncn4)c4ccc(F)cc4F)cc3)CC2)cc1 (stereo not drawn) the MIC80 [1] was 16 µg/mL (≈ 16.8 µM), the MIC80 [2] was 8 µg/mL (≈ 8.38 µM) and the MIC80 [3] was 4 µg/mL (≈ 4.19 µM). The MIC80 [4] was > 64 µg/mL.
In the case of CCN(C(=O)c1cc(-c2ccc(C)cc2)c(O)cc1O)c1ccc(CN2CCN(CC(O)(Cn3cncn3)c3ccc(F)cc3F)CC2)cc1 (stereo not drawn), the Activity [5] is reported as “Active”, the MIC80 [1] is reported as 8 µg/mL (≈ 11.7 µM) and the Activity [6] is reported as “Active”. For the same molecule, the “inhibition (INH)” value [7] was “Active”, the “inhibition (INH)” value [8] was “Active” and the “inhibition (INH)” value [9] was “Active”. For the same molecule, the MIC80 [2] was 0.063 µg/mL (≈ 0.0923 µM), the inhibition at 4 µg/mL [10] was > 80% and the Ratio [11] was 16. For the same molecule, the IC50 at 72 h [12] was 2100 nM, the Activity [13] was “Active” and the IC50 at 72 h [14] was 2100 nM. For the same molecule, the Activity [15] was 6.14 log10CFU/ml, the inhibition [16] was “Dose-dependent-effect; Result Indicated That Compound Was More Potent Than Flc” and the Activity [17] was “Active”. For the same molecule, the Activity [18] was “Active”, the IC50 [19] was 6630 nM and the Activity [20] was “Active”. The inhibition [21] was “Active; Inhibitory Effect Was Superior Than Flc”, the IC50 [22] was 740 nM and the inhibition [23] was “Active; Activity Was Superior Than Flc”. The “inhibition (INH)” value [24] was “Active”, the Activity [25] was “Active” and the inhibition [26] was “Active; Activity Was Superior Than Flc”. For the same molecule, the inhibition at 0.5 µg/mL [27] was > 50%, the Activity [28] was “Dose-dependent-effect” and the MIC80 [3] was 4 µg/mL (≈ 5.86 µM). The Activity [29] was “Active”, the Activity [30] was 5.83 log10CFU/ml and the Activity [31] was “Active”. The inhibition at 32 µg/mL [32] was ~100%, the inhibition at 8 µg/mL [33] was 100% and the MIC80 [34] was 0.004 µg/mL (≈ 0.00586 µM). For the same molecule, the Activity [35] was 7.39 log10CFU/ml, the “inhibition (INH)” value [36] was “Active” and the inhibition at 32 µg/mL [37] was 100%. The Activity [38] was 5.47 log10CFU/ml, the MIC80 [4] was 16 µg/mL (≈ 23.4 µM) and the Activity [39] was “Active”. The inhibition [40] was “Dose-dependent-effect”.
For OC(Cn1cncn1)(Cn1cncn1)c1ccc(F)cc1F [FLUCONAZOLE], the MIC80 [1] was 16 µg/mL (≈ 52.2 µM), the MIC80 [2] was 0.5 µg/mL (≈ 1.63 µM) and the “inhibition (INH)” value [24] was “Active”. The MIC80 [3] was 1 µg/mL (≈ 3.27 µM) and the MIC80 [4] was 64 µg/mL (≈ 209 µM).
